Data taken from US10647959B2, “Cell-friendly inverse opal hydrogels for cell encapsulation, drug and protein delivery, and functional nanoparticle encapsulation” (President and Fellows of Harvard College, priority 2011, dated 2020).

Test system: Mouse mesenchymal stem cells (MSCs)
Conditions: 50 mM EDTA solution, up to 3 h incubation, fluorescent images (FIG. 5a)
Experimental: Subsequently, the viability of cells was measured with a live/dead cell assay by using calcein AM and ethidium homodimer-1.

For `O=C(O)CN(CCN(CC(=O)O)CC(=O)O)CC(=O)O` [EDTA, ethylenediaminetetraacetic acid], the “toxicity of the EDTA solution to the cells” value was “no significant toxicity”.
